Source: US7666846B2, “Cholesterol-containing compounds and their use as immunogens against Borrelia burgdorferi” (The United States of America as represented by the …, priority 2003, dated 2010)
Entries after “also recorded” stand apart in the source; their conditions may differ.

Columns and labels:
[1] = ELISA and TLC overlay assays of antibodies raised against the synthetic analog; format: in vivo
Experimental: Immunostaining of membrane lipids was performed as previously described (15). Developed chromatogram plates, containing lipid spots, were coated with polyisobutyl-methacrylate solution (0.05% in hexane) and allowed to dry. The plates were then blocked with PBS containing 1% BSA and 0.05% tween 20 for 15 minutes, and then incubated with anti BBGL-II antiserum, diluted 1:100 in PBS-BSA buffer for 1 hour at 22° C. The plates were rinsed 5 times with PBS-BSA buffer and incubated with alkaline phosphatase-conjugated rat anti mouse IgG (KPL, MD) diluted 1:25,000 in PBS-BSA for 1 hour at 22° C. The plates were then washed, and developed using BCIP/NBT (KPL, MD).

[2] = test system: mice; test: Immunization of mice with glycolipid, antibody titers by ELISA; format: in vivo, NIH Swiss albino mice
Experimental: FIG. 11 is a graph showing antibody titers of sera from ice immunized with the glycolipid of formula B. Mice (10 mice per group) were immunized as described below, with the glycolipid of formula B in Freund's adjuvant (CFA); PBS; DMSO, or squalene. Antibody titers were determined by an ELISA in sera diluted 1:100, and are represented as an average of three independent assays. Brackets, standard deviation.
(§1) Immunization and Immunostaining—Groups of ten female NIH Swiss albino mice (5-6 weeks old, general purpose) were immunized intraperitoneally with 2 doses of BBGL-II emulsified in complete Freund's adjuvant (first dose) or incomplete Freund's adjuvant (second dose) two weeks apart. The doses contained 10 μg BBGL-II per 0.1 ml and were administered IP in 0.1 ml. Alternatively, mice were immunized three times, 2 weeks apart, with 10 μg of BBGL-II emulsified in 0.1 ml of DMSO, squalene, or PBS. Mice were bled 2 weeks after the second dose and the sera thus obtained was kept at −20° C. until used. Rabbits (females, New Zealand White, 8 weeks old) were immunized with two doses of BBGL-II, 75 μg each, in Fruend's adjuvant, administered i.m. and i.c. in 20×0.05 ml.

[3] = test system: rabbits; test: Immunization of rabbits with glycolipid, antibody titers by ELISA; format: in vivo, New Zealand White rabbits
Experimental: FIG. 10 is a graph showing antibody titers of sera from rabbits immunized with the glycolipid of formula B. Antibody titers were measured by an ELISA, as described below, and represent an average of four different rabbit sera, diluted 1:100, each tested in three independent assays. Open bars, IgG titers; gray bars, IgM titers; brackets, standard deviation.
as §1

[4] = test system: immobilized polymixin B on agarose; test: Affinity chromatography on Detoxi-Gel Endotoxin Removing Gel; format: binding; conditions: sonicated B. burgdorferi cells loaded; bound material eluted with 1% deoxycholic acid; TLC and immunolabeling
Experimental: Affinity Chromatography—BBGL-II was also purified by affinity chromatography using Detoxi-Gel Endotoxin Removing Gel (Pierce, Rockford, Ill.). Borrelia cells were washed 5 times with PBS, resuspended in the same buffer, and disrupted by ultrasonic treatment for 30 seconds, in a Branson sonifier operated at 50% duty cycles at 100 W. Membranes were separated from the soluble fraction by centrifugation at 37000 g for 30 minutes, and the supernatant (1 ml containing 1 mg total protein) was loaded on a detoxi-gel (agarose-immobilized-polymixin B) column (0.9×10 cm). The column was washed with 10 bed-volumes of PBS. Elution of the bound material was performed by washing with 10 bed volumes of PBS containing 1% Deoxycholic acid (w/v), according to the manufacturer's instructions. The bound fraction was dialyzed against distilled water, lyophilized, and lipids were extracted as mentioned.
This resin consists of immobilized polymixin B on agarose, and is used for the removal of endotoxins by binding to the lipid A portion of LPS.

[5] = Antibodies induced by BBGL-III (data not shown); format: in vivo

Q: With `CC(C)CCCC(C)C1CCC2C3CC=C4CC(OC5OC(COC(=O)CCCCCCCCCCCCCCCN=[N+]=[N-])C(O)C(O)C5O)CCC4(C)C3CCC12C` (stereo not shown) [compound 19] as the compound, how does the “antibodies raised, compared with purified native BBGL-II” value [1] read?
A: Its value is “to the same extent as with the purified native BBGL-II”.

Q: With `CCCCCCCCCCCCCCCC(=O)OC[C@H]1O[C@@H](O[C@H]2CC[C@@]3(C)C(=CC[C@H]4[C@@H]5CC[C@H]([C@H](C)CCCC(C)C)[C@@]5(C)CC[C@@H]43)C2)[C@H](O)[C@@H](O)[C@H]1O` [BBGL-II, cholesteryl 6-O-palmitoyl-β-D-galactopyranoside] as the compound, how does the “relative immunogenicity by formulation” value ([2]; in PBS (likely as micelles) compared with solute in DMSO or squalene) read?
A: The value was “more immunogenic than as a solute in DMSO or squalene”.

Q: And the “isotype of elicited antibodies” value ([2]; mice)?
A: The value was “mostly of the IgM isotype”.

Q: What about the “specificity of elicited antibodies” value ([2]; mice) of the same compound?
A: The value was “specific to the homologous glycolipid”.

Q: What about the induction of antibodies ([2]; mice injected with various formulations) of the same compound?
A: The induction of antibodies was “Specific antibodies were induced; also recorded: elicited antibodies”.

Q: What about the “antibody titers by formulation” value ([2]; with Freund's adjuvant, compared with PBS, DMSO, squalene) of the same compound?
A: Its value is “Highest titers”.

Q: And the “isotype of elicited antibodies” value [3]?
A: Its value is “mostly of the IgM isotype”.

Q: And the “specificity of elicited antibodies” value [3]?
A: The value was “specific to the homologous glycolipid”.

Q: What about the induction of antibodies ([3]; Freund's adjuvant) of the same compound?
A: Its induction of antibodies is “Specific antibodies were induced; also recorded: elicited antibodies”.

Q: For “1,2-diacyl-3-[O-α-D-galactopyranosyl]-sn-glycerol [BBGL-III]”, which “binding to Detoxi-Gel (polymixin B) column” value [4] is on record?
A: The value was “not bound to the column”.

Q: What about the “isotype of induced antibodies” value ([5]; data not shown) of the same compound?
A: The value was “mostly IgM”.

Q: And the induction of antibodies ([5]; data not shown, species not stated)?
A: Its induction of antibodies is “induced antibodies; also recorded: elicited antibodies”.

Q: What about the “reactivity of induced antibodies with BBGL-II and BBGL-III” value ([5]; in vivo) of the same compound?
A: Its value is “reacted with both glycolipids”.
